Source: ChEMBL document CHEMBL6127100, “Plant based steroidal and triterpenoid sapogenins: Chemistry on diosgenin and biological aspects” (Eur J Med Chem, 2024)

What was measured:
Jurkat = test: Cytotoxicity against human Jurkat cells assessed as reduction in cell viability incubated for 24 hrs by MTT assay; assay type: functional, cell-based
RAW264.7 [1] = test: Anti-inflammatory activity in LPS-induced mouse RAW264.7 cells assessed as reduction in TNF-alpha production at by ELISA; assay type: functional; design: scale not given: the % may be the effect or the level left
RAW264.7 [2] = test: Anti-inflammatory activity in LPS-induced mouse RAW264.7 cells assessed as inhibition of IL-6 production at by ELISA; assay type: functional; design: scale not given: the % may be the effect or the level left
MDA-MB-231 = test: Cytotoxicity against human MDA-MB-231 cells assessed as reduction in cell viability incubated for 24 hrs by MTT assay; assay type: functional, cell-based; conditions: MDA-MB-231, 24 h
DU-145 [3] = test: Cytotoxicity against human DU-145 cells; assay type: functional, cell-based
BT-474 = test: Cytotoxicity against human BT-474 cells; assay type: functional, cell-based
HeLa [4] = test: Growth inhibition of human HeLa cells; assay type: functional
FaDu [5] = test: Antiproliferative activity against human FaDu cells; assay type: functional, cell-based
DU-145 [6] = test: Cytotoxicity against human DU-145 cells assessed as reduction in cell growth incubated for 48 hrs by SRB assay; assay type: functional, cell-based; conditions: DU-145, 48 h
DLD-1 [7] = test: Cytotoxicity against human DLD-1 cells; assay type: functional, cell-based
DU-145 [8] = test: Antiproliferative activity against human DU-145 cells; assay type: functional, cell-based
MCF7 [9] = test: Cytotoxicity against human MCF7 cells assessed as reduction in cell growth incubated for 48 hrs by SRB assay; assay type: functional, cell-based; conditions: MCF7, 48 h
MCF7 [10] = test: Cytotoxicity against human MCF7 cells; assay type: functional, cell-based
A549 [11] = test: Cytotoxicity against human A549 cells assessed as reduction in cell growth incubated for 48 hrs by SRB assay; assay type: functional, cell-based; conditions: A549, 48 h
A549 [12] = test: Cytotoxicity against human A549 cells; assay type: functional, cell-based
DLD-1 [13] = test: Cytotoxicity against human DLD-1 cells assessed as reduction in cell growth incubated for 48 hrs by SRB assay; assay type: functional, cell-based; conditions: DLD-1, 48 h
FaDu [14] = test: Cytotoxicity against human FaDu cells assessed as reduction in cell growth incubated for 48 hrs by SRB assay; assay type: functional, cell-based
RAW264.7 [15] = test: Antiinflammatory activity in LPS-induced mouse RAW264.7 cells assessed as inhibition of IL-6 production pretreated for 1 hr followed by LPS stimulation and measured after 3 hrs by ELISA; assay type: functional; design: scale not given: the % may be the effect or the level left; conditions: time 4 hrs
RAW264.7 [16] = test: Anti-inflammatory activity in mouse RAW264.7 cells assessed as inhibition of LPS-induced TNFalpha production preincubated for 1 hr followed by LPS addition and measured after 24 hrs by ELISA; assay type: functional; design: scale not given: the % may be the effect or the level left; conditions: time 25 hrs
MCF7 [17] = test: Cytotoxicity against human MCF7 cells assessed as reduction in cell viability incubated for 24 hrs by MTT assay; assay type: functional, cell-based; conditions: MCF7, 24 h
HeLa [18] = test: Cytotoxicity against human HeLa cells assessed as reduction in cell viability incubated for 24 hrs by MTT assay; assay type: functional, cell-based
PC-9 = test: Anticancer activity against human PC-9 cells assessed as inhibition of cell growth incubated for 48 hrs by MTT assay; assay type: functional, cell-based; conditions: PC-9, 48 h
A549 [19] = test: Anticancer activity against human A549 cells assessed as inhibition of cell growth incubated for 48 hrs by MTT assay; assay type: functional, cell-based; conditions: A549, 48 h
HeLa [20] = test: Antiproliferative activity against human HeLa cells assessed as reduction in cell growth by MTT assay; assay type: functional, cell-based
WiDr = test: Antiproliferative activity against human WiDr cells assessed as inhibition of cell growth incubated for 48 hrs by tryphan blue dye based assay; assay type: functional
HBL = test: Antiproliferative activity against human HBL cells assessed as inhibition of cell growth incubated for 48 hrs by tryphan blue dye based assay; assay type: functional
T47D = test: Antiproliferative activity against human T47D cells assessed as inhibition of cell growth incubated for 48 hrs by tryphan blue dye based assay; assay type: functional
SW1573 = test: Antiproliferative activity against human SW1573 cells assessed as inhibition of cell growth incubated for 48 hrs by tryphan blue dye based assay; assay type: functional; conditions: SW1573, 48 h
HeLa [21] = test: Antiproliferative activity against human HeLa cells assessed as inhibition of cell growth incubated for 48 hrs by tryphan blue dye based assay; assay type: functional
A549 [22] = test: Antiproliferative activity against human A549 cells assessed as inhibition of cell growth incubated for 48 hrs by tryphan blue dye based assay; assay type: functional; conditions: A549, 48 h

CC(=O)O[C@H]1CC[C@@]2(C)C(=CC[C@H]3[C@@H]4C[C@@H]5O[C@H](CC[C@@H](C)COC(=O)N6CCN(C)CC6)[C@@H](C)[C@@H]5[C@@]4(C)CC[C@@H]32)C1
IC50 (Jurkat): 15.8 µM | Activity (RAW264.7 [1]): 33.66% | Activity (RAW264.7 [2]): 49% | IC50 (MDA-MB-231): 13.5 µM

CC(=O)O[C@@H]1C=C2/C(=N/O)C[C@H]3[C@@H]4C[C@@H]5OC(=O)[C@@H](C)[C@@H]5[C@@]4(C)CC[C@@H]3[C@@]2(C)CC1
IC50 (DU-145 [3]): 7.81 µM | IC50 (BT-474): 14.1 µM | GI50 (HeLa [4]): 17 µM

C[C@H]1CO[C@@]2(O[C@H]3C[C@H]4[C@@H]5/C(=N/CCCCCCC(=O)O)C=C6C[C@@H](O)CC[C@]6(C)[C@H]5CC[C@]4(C)[C@H]3[C@@H]2C)/C(=N/O)C1
IC50 (FaDu [5]): 15.2 µM | IC50 (DU-145 [6]): 16.6 µM | IC50 (DLD-1 [7]): 14.6 µM | IC50 (DU-145 [8]): 12.8 µM | IC50 (MCF7 [9]): 15.6 µM | IC50 (MCF7 [10]): 15.8 µM | IC50 (A549 [11]): 17.1 µM | IC50 (A549 [12]): 15.8 µM | IC50 (DLD-1 [13]): 16 µM | IC50 (FaDu [14]): 16.6 µM | Activity (RAW264.7 [15]): 19.73% | Activity (RAW264.7 [16]): 41.72%

CC(=O)O[C@H]1CC[C@@]2(C)C(=CC[C@H]3[C@@H]4C[C@@H]5O[C@H](CC[C@@H](C)CO)[C@@H](C)[C@@H]5[C@@]4(C)CC[C@@H]32)C1
IC50 (MCF7 [17]): 11 µM | IC50 (HeLa [18]): 11.4 µM

C[C@@H]1CC[C@@]2(OC1)O[C@H]1C[C@H]3[C@@H]4CCC5(OC#N)C[C@@H](O)CC[C@]5(C)[C@H]4CC[C@]3(C)[C@H]1[C@@H]2C (stereo not given in full)
IC50 (PC-9): 8.7 µM | IC50 (A549 [19]): 5.1 µM

CC(=O)OC[C@H](C)CCC(=O)[C@@H](C)[C@H]1[C@@H](OC(C)=O)C[C@H]2[C@@H]3CC=C4C[C@H](N=[N+]=[N-])CC[C@]4(C)[C@H]3CC[C@]12C
IC50 (HeLa [20]): 11.8 µM

CC(CCC[C@H](C)[C@H]1[C@@H](O)C[C@H]2[C@@H]3CC=C4C[C@@H](O)CC[C@]4(C)[C@H]3CC[C@]12C)C[Se]C#N (stereo not given in full)
IC50 (WiDr): 5.5 µM | IC50 (HBL): 2.2 µM | IC50 (T47D): 3.2 µM | IC50 (SW1573): 2.2 µM | IC50 (HeLa [21]): 3.3 µM | IC50 (A549 [22]): 1.7 µM
